Several values for one entry are separate records, joined by “and”; a condition that tells them apart may be missing. Equal entries are not always repeated. Toxic doses and inconclusive results are not listed. Cut-off read from the data, not from the text of the source: active = T/C of 150% or more; inactive = T/C below 125%.
System: L1210 leukemia ip in BDF1 mice, survival T/C
Assay: NCI In Vivo Anticancer Drug Screen. Data for tumor model L1210 Leukemia (intraperitoneal) in B6D2F1 (BDF1) mice
Conditions: endpoint: mean survival time, higher = longer survival
Method in brief: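 Mice bearing the transplanted tumor received compound or vehicle. Survival of the treated group was divided by that of the vehicle-treated control group to give the ratio.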

[1] = dose: 100.0 mg/kg/injection, schedule: Q04DX003 (ip), vehicle: saline with Tween-80
[2] = dose: 200.0 mg/kg/injection, schedule: Q04DX003 (ip), vehicle: saline with Tween-80
[3] = dose: 100.0 mg/kg/injection, schedule: Q04DX002 (ip), vehicle: saline with Tween-80
[4] = dose: 200.0 mg/kg/injection, schedule: Q04DX002 (ip), vehicle: saline with Tween-80
[5] = dose: 400.0 mg/kg/injection, schedule: Q04DX002 (ip), vehicle: saline with Tween-80
[6] = dose: 100.0 mg/kg/injection, schedule: Q01DX001 (ip), vehicle: saline
[7] = dose: 200.0 mg/kg/injection, schedule: Q01DX001 (ip), vehicle: saline
[8] = dose: 400.0 mg/kg/injection, schedule: Q01DX001 (ip), vehicle: saline
[9] = dose: 100.0 mg/kg/injection, schedule: Q04DX003 (ip), vehicle: saline
[10] = dose: 200.0 mg/kg/injection, schedule: Q04DX003 (ip), vehicle: saline
[11] = dose: 400.0 mg/kg/injection, schedule: Q04DX003 (ip), vehicle: saline
[12] = dose: 100.0 mg/kg/injection, schedule: Q04DX003 (ip), vehicle: Klucel (hydroxypropylcellulose) (HPC)
[13] = dose: 200.0 mg/kg/injection, schedule: Q04DX003 (ip), vehicle: Klucel (hydroxypropylcellulose) (HPC)
[14] = dose: 400.0 mg/kg/injection, schedule: Q04DX003 (ip), vehicle: Klucel (hydroxypropylcellulose) (HPC)
[15] = dose: 100.0 mg/kg/injection, schedule: Q01DX009 (ip), vehicle: saline
[16] = dose: 200.0 mg/kg/injection, schedule: Q01DX009 (ip), vehicle: saline
[17] = dose: 400.0 mg/kg/injection, schedule: Q01DX009 (ip), vehicle: saline
[18] = dose: 100.0 mg/kg/injection, schedule: Q01DX001 (ip), vehicle: carboxymethylcellulose (CMC)
[19] = dose: 200.0 mg/kg/injection, schedule: Q01DX001 (ip), vehicle: carboxymethylcellulose (CMC)
[20] = dose: 400.0 mg/kg/injection, schedule: Q01DX001 (ip), vehicle: carboxymethylcellulose (CMC)

Measured: T/C

COC1OC(COC(=O)c2ccccc2)C(OC(=O)c2ccccc2)C1OC(=O)c1ccccc1 (stereo not drawn)
inactive: [1] 101 % of control | [2] 92 % of control | dose: 400.0 mg/kg/injection, schedule: Q04DX003 (ip), vehicle: saline with Tween-80 90 % of control

CN(C)/N=C\c1cccc2ccccc12
inactive: [3] 96 % of control | [4] 92 % of control | [5] 92 % of control

Cc1ccc(/C(Cc2ccccc2)=N\NC(N)=O)cc1
inactive: [6] 92 % of control | [7] 98 % of control | [8] 98 % of control

Nc1cc(=S)c2[nH]cnc2[nH]1
inactive: dose: 100.0 mg/kg/injection, schedule: Q01DX001 (ip), vehicle: Klucel (hydroxypropylcellulose) (HPC) 92 % of control | dose: 400.0 mg/kg/injection, schedule: Q01DX001 (ip), vehicle: Klucel (hydroxypropylcellulose) (HPC) 88 % of control

CC(=O)OCCC/C(=C\c1ccccc1)[N+](=O)[O-]
inactive: [6] 107 % of control

NC(=O)CCC(C(=O)O)N1C(=O)C2C3CCC(C3)C2C1=O (stereo not drawn)
inactive: [9] 98 % of control | [10] 95 % of control | [11] 95 % of control

CCCCCCCCCCCCCCCCNc1cc(C)cc(C)c1
inactive: [12] 96 % of control | [13] 95 % of control | [14] 101 % of control

CCC(C)c1ccc(-c2ccc(OC)cc2)cc1 (stereo not drawn)
inactive: [1] 86 % of control | [2] 86 % of control

CCOP(=O)(OCC)C1=C(P(=O)(OCC)OCC)C(F)(F)C1(F)F
inactive: dose: 75.0 mg/kg/injection, schedule: Q01DX001 (ip), vehicle: other 102 % of control

COC(=O)C1(C)CCC(c2ccc(C)cc2)=C(CC(=O)O)C1 (stereo not drawn)
inactive: [15] 115 % of control | [9] 100 % of control | [16] 97 % of control | [10] 96 % of control | [17] 95 % of control | [11] 115 % of control

Cc1ccc(/C(=C/c2ccc([N+](=O)[O-])cc2)C(=O)O)cc1
inactive: [12] 102 % of control | [13] 98 % of control | [14] 95 % of control

CCOC(=O)C1(C)OC1c1ccc2c(c1)OCO2 (stereo not drawn)
inactive: dose: 100.0 mg/kg/injection, schedule: Q01DX009 (ip), vehicle: saline with Tween-80 106 % of control | dose: 200.0 mg/kg/injection, schedule: Q01DX009 (ip), vehicle: saline with Tween-80 95 % of control | dose: 400.0 mg/kg/injection, schedule: Q01DX009 (ip), vehicle: saline with Tween-80 103 % of control

Cc1cc(Br)c(I)c([N+](=O)[O-])c1
inactive: dose: 37.5 mg/kg/injection, schedule: Q04DX003 (ip), vehicle: saline with Tween-80 104 % of control | dose: 75.0 mg/kg/injection, schedule: Q04DX003 (ip), vehicle: saline with Tween-80 95 % of control | dose: 150.0 mg/kg/injection, schedule: Q04DX003 (ip), vehicle: saline with Tween-80 102 % of control

N#Cc1c(C#N)c(N)n(N)c1N
inactive: dose: 200.0 mg/kg/injection, schedule: Q04DX002 (ip), vehicle: Klucel (hydroxypropylcellulose) (HPC) 114 % of control

O=C(Oc1ccccc1)c1ccc2[nH]c(=O)c(C(=O)O)nc2c1
inactive: dose: 25.0 mg/kg/injection, schedule: Q01DX001 (ip), vehicle: saline with Tween-80 96 % of control | dose: 50.0 mg/kg/injection, schedule: Q01DX001 (ip), vehicle: saline with Tween-80 100 % of control | dose: 100.0 mg/kg/injection, schedule: Q01DX001 (ip), vehicle: saline with Tween-80 98 % of control

CCOC(=O)Oc1ccc(OC)cc1
inactive: dose: 100.0 mg/kg/injection, schedule: Q01DX009 (ip), vehicle: Klucel (hydroxypropylcellulose) (HPC) 111 % of control | [9] 98 % of control | dose: 200.0 mg/kg/injection, schedule: Q01DX009 (ip), vehicle: Klucel (hydroxypropylcellulose) (HPC) 96 % of control | [10] 112 % of control | dose: 400.0 mg/kg/injection, schedule: Q01DX009 (ip), vehicle: Klucel (hydroxypropylcellulose) (HPC) 96 % of control | [11] 124 % of control

Nc1c(S(=O)(=O)O)cc(Nc2cccc(CO)c2)c2c1C(=O)c1ccccc1C2=O
inactive: dose: 5.0 mg/kg/injection, schedule: Q01DX001 (ip), vehicle: saline 105 % of control | dose: 10.0 mg/kg/injection, schedule: Q01DX001 (ip), vehicle: saline 103 % of control | dose: 20.0 mg/kg/injection, schedule: Q01DX001 (ip), vehicle: saline 101 % of control | dose: 40.0 mg/kg/injection, schedule: Q01DX001 (ip), vehicle: saline 94 % of control | dose: 80.0 mg/kg/injection, schedule: Q01DX001 (ip), vehicle: saline 95 % of control | [6] 95 % of control | [9] 101 % of control | [7] 93 % of control | [10] 104 % of control | [11] 92 % of control

O=C(O)c1ccccc1C(=O)OC1CCCC2CCCC21 (stereo not drawn)
inactive: [18] 95 % of control and 96 % of control | [19] 101 % of control and 98 % of control | [20] 90 % of control and 98 % of control

O=C1NC(=O)C(c2ccccc2)(c2ccc(Cl)cc2Cl)N1 (stereo not drawn)
inactive: [18] 100 % of control | [6] 121 % of control | [15] 90 % of control | [9] 86 % of control | [19] 110 % of control | [7] 97 % of control | [16] 87 % of control | [10] 102 % of control | [20] 105 % of control | [8] 95 % of control | [17] 89 % of control | [11] 93 % of control

CCCCCCCCCCCCCCCCCC(=O)Oc1cccc2cccnc12
inactive: [3] 93 % of control | [4] 93 % of control | [5] 106 % of control

CCOC(=S)Nc1ccccc1[N+](=O)[O-]
inactive: dose: 100.0 mg/kg/injection, schedule: Q04DX002 (ip), vehicle: gum acacia 102 % of control | dose: 200.0 mg/kg/injection, schedule: Q04DX002 (ip), vehicle: gum acacia 105 % of control | dose: 400.0 mg/kg/injection, schedule: Q04DX002 (ip), vehicle: gum acacia 102 % of control

CNC1(Cc2ccc(F)cc2)CCC1
inactive: [15] 100 % of control

O=c1[nH][nH]c(=S)c2[nH]c(=S)n(Cc3ccccc3)c12
inactive: [6] 90 % of control | [7] 93 % of control | [8] 90 % of control

CCCCCCSC(=O)Nc1ccc(C)c(NC(=O)SCCCCCC)c1
inactive: [1] 91 % of control | [2] 89 % of control

BrCCC[CH2][Pb]([c]1ccccc1)([c]1ccccc1)[c]1ccccc1
inactive: dose: 50.0 mg/kg/injection, schedule: Q01DX001 (ip), vehicle: carboxymethylcellulose (CMC) 102 % of control | [18] 105 % of control | [19] 111 % of control | [20] 100 % of control

OCCCCCc1ccccc1
inactive: dose: 100.0 mg/kg/injection, schedule: Q01DX009 (ip), vehicle: other 105 % of control | [9] 92 % of control | dose: 200.0 mg/kg/injection, schedule: Q01DX009 (ip), vehicle: other 102 % of control | [10] 101 % of control | dose: 400.0 mg/kg/injection, schedule: Q01DX009 (ip), vehicle: other 102 % of control | [11] 90 % of control

Source: PubChem BioAssay AID248 (DTP/NCI, 2004)
